Data on 16 compounds can be found in PubChem BioAssay AID192 (DTP/NCI, 2004).

The subject of this assay is BDF1 mice, B16 melanoma ip, median survival T/C. Kind of assay: NCI In Vivo Anticancer Drug Screen. Data for tumor model B16 Melanoma (intraperitoneal) in B6D2F1 (BDF1) mice. To be noted: endpoint: median survival time, higher = longer survival. A digest of the protocol:
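Compounds were tested in mice carrying transplantable tumors. Survival or tumor size was recorded, and each value is the treated-group measurement (T) divided by that of the vehicle-treated control group (C).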

[1] abbreviates: dose: 25.0 mg/kg/injection, schedule: Q01DX009 (ip), vehicle: saline.
The mark [2] stands for this setting: dose: 50.0 mg/kg/injection, schedule: Q01DX009 (ip), vehicle: saline.
The mark [3] stands for this setting: dose: 100.0 mg/kg/injection, schedule: Q01DX009 (ip), vehicle: saline.
Where [4] appears, read: dose: 200.0 mg/kg/injection, schedule: Q01DX009 (ip), vehicle: saline.
Where [5] appears, read: dose: 100.0 mg/kg/injection, schedule: Q01DX009 (ip), vehicle: saline with Tween-80.
The mark [6] stands for this setting: dose: 100.0 mg/kg/injection, schedule: Q04DX003 (ip), vehicle: saline with Tween-80.
Setting [7] is: dose: 200.0 mg/kg/injection, schedule: Q01DX009 (ip), vehicle: saline with Tween-80.
[8] abbreviates: dose: 200.0 mg/kg/injection, schedule: Q04DX003 (ip), vehicle: saline with Tween-80.
Setting [9] is: dose: 12.5 mg/kg/injection, schedule: Q01DX009 (ip), vehicle: saline.
[10] abbreviates: dose: 4.0 mg/kg/injection, schedule: Q01DX009 (ip), vehicle: saline with Tween-80.
[11] abbreviates: dose: 8.0 mg/kg/injection, schedule: Q01DX009 (ip), vehicle: saline with Tween-80.
The mark [12] stands for this setting: dose: 16.0 mg/kg/injection, schedule: Q01DX009 (ip), vehicle: saline with Tween-80.
[13] abbreviates: dose: 50.0 mg/kg/injection, schedule: Q01DX009 (ip), vehicle: Klucel (hydroxypropylcellulose) (HPC).
[14] abbreviates: dose: 100.0 mg/kg/injection, schedule: Q01DX009 (ip), vehicle: Klucel (hydroxypropylcellulose) (HPC).
The mark [15] stands for this setting: dose: 25.0 mg/kg/injection, schedule: Q04DX003 (ip), vehicle: saline.
Setting [16] is: dose: 200.0 mg/kg/injection, schedule: Q01DX009 (ip), vehicle: Klucel (hydroxypropylcellulose) (HPC).

Each structure is given as a SMILES string. Where “and” joins values, the source holds several entries; their conditions need not be identical. Identical values can stand only once. Inconclusive results and toxic doses are left out.

Take `CC1=Nc2ccccc2/C1=C\c1c(C)[nH]c2ccccc12`: the T/C runs as follows: under setting [1], 110 % of control; under setting [2], 113 % of control; under setting [3], 121 % of control; under setting [4], 97 % of control.
On to `CC(O)c1cc(Cl)ccc1Cl` (stereo unspecified), for which the T/C reads like this: under setting [5], 93 % of control; under setting [6], 107 % of control; under setting [7], 115 % of control; under setting [8], 107 % of control; (dose: 400.0 mg/kg/injection, schedule: Q01DX009 (ip), vehicle: saline with Tween-80) 103 % of control.
As to `CNCCN(C)CCN(C)Cc1ccc(OC)cc1`, the T/C by setting is: under setting [2], 103 % of control; under setting [3], 106 % of control; under setting [4], 106 % of control.
For the compound `c1ccc2c(CC[n+]3cccc(C4OCCO4)c3)c[nH]c2c1`, the T/C reads like this: under setting [9], 94 % of control; under setting [1], 100 % of control; under setting [2], 100 % of control.
For the compound `C=C1C(=O)OCC1(C(=O)OCC)C(=O)OCC`, the T/C was 109 % of control under setting [10], 97 % of control under setting [11] and 89 % of control under setting [12].
On to `C=C1C(=O)O[C@@H]2C[C@@H](C)[C@@H]3[C@@H](OC4OC(COC(C)=O)C(O)C(O)C4O)CC(=O)[C@@]3(C)C[C@H]12` (stereo partly specified), for which the T/C is 95 % of control (dose: 6.4 mg/kg/injection, schedule: Q01DX009 (ip), vehicle: saline); 100 % of control (dose: 9.6 mg/kg/injection, schedule: Q01DX009 (ip), vehicle: saline); 100 % of control (dose: 14.0 mg/kg/injection, schedule: Q01DX009 (ip), vehicle: saline); 100 % of control (dose: 22.0 mg/kg/injection, schedule: Q01DX009 (ip), vehicle: saline).
For the compound `CCCCCCCCC(=O)OCCNC(=O)C(C)OC(=O)CCCCCCCC` (stereo unspecified), the T/C is, setting by setting: (dose: 25.0 mg/kg/injection, schedule: Q01DX009 (ip), vehicle: Klucel (hydroxypropylcellulose) (HPC)) 102 % of control; under setting [13], 103 % of control; under setting [14], 92 % of control.
`CCO/C=C1\SC(=S)N(c2ccco2)C1=O`: the T/C reads like this: under setting [1], 111 % of control; under setting [15], 116 % of control; under setting [2], 98 % of control; (dose: 50.0 mg/kg/injection, schedule: Q04DX003 (ip), vehicle: saline) 105 % of control; under setting [3], 117 % of control; (dose: 100.0 mg/kg/injection, schedule: Q04DX003 (ip), vehicle: saline) 116 % of control. Also, the T/C (dose: 200.0 mg/kg/injection, schedule: Q04DX003 (ip), vehicle: saline) is 102 % of control.
On to `C=C(C)[C@H]1Cc2c(ccc3c2O[C@@H]2COc4cc(OC)c(OC)cc4[C@@H]2C3=O)O1`, for which the T/C was 92 % of control and 99 % of control under setting [10]; 105 % of control under setting [11]; 98 % of control under setting [12].
As to `C[N+]1(C)CCCC1`, the T/C was 111 % of control (dose: 6.25 mg/kg/injection, schedule: Q01DX009 (ip), vehicle: saline); 95 % of control (dose: 6.25 mg/kg/injection, schedule: Q04DX003 (ip), vehicle: saline); 100 % of control under setting [9]; 95 % of control (dose: 12.5 mg/kg/injection, schedule: Q04DX003 (ip), vehicle: saline); 91 % of control under setting [1]; 95 % of control under setting [15].
`Cc1cc2ccc(OC(=O)c3ccc(N=C(N)N)cc3)cc2oc1=O`: the T/C by setting is: (dose: 12.5 mg/kg/injection, schedule: Q01DX009 (ip), vehicle: saline with Tween-80) 91 % of control; (dose: 25.0 mg/kg/injection, schedule: Q01DX009 (ip), vehicle: saline with Tween-80) 100 % of control; under setting [5], 86 % of control; under setting [6], 92 % of control; under setting [8], 95 % of control; (dose: 400.0 mg/kg/injection, schedule: Q04DX003 (ip), vehicle: saline with Tween-80) 95 % of control.
As to `CC[N+](CC)(CC)CC.N#C/C([SH2+])=C(/[SH2+])C#N.N#C/C([SH2+])=C(/[SH2+])C#N.[Cu+2]`, the T/C by setting is: (dose: 12.5 mg/kg/injection, schedule: Q04DX003 (ip), vehicle: Klucel (hydroxypropylcellulose) (HPC)) 92 % of control; (dose: 25.0 mg/kg/injection, schedule: Q04DX003 (ip), vehicle: Klucel (hydroxypropylcellulose) (HPC)) 89 % of control.
In the case of `COc1ccc(C(CC(=O)c2ccc3c(c2)OCO3)C(=O)O)cc1OC` (stereo unspecified), the T/C was 96 % of control under setting [14]; 100 % of control under setting [16]; 100 % of control (dose: 400.0 mg/kg/injection, schedule: Q01DX009 (ip), vehicle: Klucel (hydroxypropylcellulose) (HPC)).
For `NC(=O)NC(=O)c1cccc([N+](=O)[O-])c1`, the T/C is, setting by setting: (dose: 50.0 mg/kg/injection, schedule: Q01DX009 (ip), vehicle: saline with Tween-80) 104 % of control; under setting [5], 102 % of control; under setting [7], 102 % of control.
Regarding `O=C(O)CC(NC(=O)OCc1ccccc1)C(=O)OCc1ccccc1` (stereo unspecified), the T/C under setting [13] is 118 % of control, the T/C under setting [14] was 89 % of control and the T/C under setting [16] is 92 % of control.
On to `Cc1cc([NH-])c([NH-])cc1C.[Cl][Pt+2][Cl]`, for which the T/C is 108 % of control (dose: 1.25 mg/kg/injection, schedule: Q01DX009 (ip), vehicle: saline with Tween-80); 123 % of control (dose: 2.5 mg/kg/injection, schedule: Q01DX009 (ip), vehicle: saline with Tween-80); 161 % of control (dose: 10.0 mg/kg/injection, schedule: Q01DX009 (ip), vehicle: saline with Tween-80).
